Each structure is given as a SMILES string. Active and inactive are the calls of the source. The calls are words filed in the database; no cut-off is given here.

Usually inhibition stands for the percentage by which the read-out fell short of the control.

In experiment [1] the test system is HCT-116. Kind of experiment: Induction of cell cycle arrest in human HCT116 cells assessed as cells accumulation at S phase at 10 uM after 24 hrs by propidium iodide staining-based flow cytometry (reference value: 48.8 +/- 1.5%). The class given is functional. On the technique in general: In flow cytometry, cells or beads pass a laser one at a time.
For experiment [2], the system named is HCT-116. Nature of the experiment: Induction of cell cycle arrest in human HCT116 cells assessed as cells accumulation at G2/M phase at 10 uM after 24 hrs by propidium iodide staining-based flow cytometry (reference value: 19.2 +/- 0.3%). The class given is functional.
Experiment [3] relates to HCT-116. Nature of the experiment: Induction of autophagy in human HCT116 cells assessed as autophagic vacuoles at 10 uM after 24 hrs by monodansylcadaverine staining assay. The class given is functional, cell-based.
The subject of experiment [4] is HCT-116. Nature of the experiment: Induction of autophagy in human HCT116 cells assessed as autophagic vacuoles at 10 uM after 24 hrs by monodansylcadaverine staining assay in presence of Bafilomycin A1. Type of experiment: functional, cell-based.
Experiment [5] relates to HCT-116. Kind of experiment: Induction of autophagy in human HCT116 cells assessed as increase in LC3-II accumulation at 10 uM upto 20 hrs by immunoblot analysis. The class given is functional, cell-based. For orientation: A western blot detects proteins with antibodies after separation by electrophoresis.
The subject of experiment [6] is HCT-116. Nature of the experiment: Induction of autophagy in human HCT116 cells assessed as increase in LC3-II accumulation at 10 uM upto 20 hrs by Confocal imaging analysis. The class given is functional, cell-based.
Experiment [7] deals with HCT-116. Nature of the experiment: Induction of autophagy in human HCT116 cells assessed as increase in LC3-II dots per cell at 10 uM upto 20 hrs by Confocal imaging analysis relative to vehicle treated control (reference value: 0.8/cell). Type of experiment: functional.
Experiment [8] deals with HCT-116. Kind of experiment: Induction of autophagy in human HCT116 cells transfected with shRNA against p53 assessed as LC3-II accumulation at 10 uM after 24 hrs by Western blotting analysis. Type of experiment: functional, cell-based.
The subject of experiment [9] is HCT-116. Nature of the experiment: Induction of autophagy in human HCT116 cells assessed as LC3-II accumulation at 10 uM upto 20 hrs by Western blotting analysis in presence of 30 uM PFT-alpha p53 antagonist. The class given is functional, cell-based.
The test system of experiment [10] is HCT-116. Nature of the experiment: Antiproliferative activity against human HCT116 cells transfected with shRNA against p53 at 10 uM after 24 hrs by CCK8 assay relative to control. The class given is functional, cell-based. In general terms: Tetrazolium dyes change colour on reduction, which living cells bring about.
In experiment [11] the test system is HCT-116. Nature of the experiment: Antiproliferative activity against human HCT116 cells transfected with shRNA against p53 at 10 uM after 24 hrs by CCK8 assay in presence of exogenous p53 gene. The class given is functional, cell-based.
Experiment [12] concerns the target Mitogen-activated protein kinase 8 (Homo sapiens) (UniProt P45983). Nature of the experiment: Activation of JNK1 in human HCT116 cells assessed as phosphorylation at 10 uM after 24 hrs by Western blotting analysis. The following applies: HCT-116. Type of experiment: cell-based.
Experiment [13] deals with Mitogen-activated protein kinase 9 (Homo sapiens) (UniProt P45984). Kind of experiment: Activation of JNK2 in human HCT116 cells assessed as phosphorylation at 10 uM after 24 hrs by Western blotting analysis. The class given is cell-based. As to conditions: HCT-116.
Chain of Mitogen-activated protein kinase 9 (Homo sapiens) (P45984 whole entry, looked up): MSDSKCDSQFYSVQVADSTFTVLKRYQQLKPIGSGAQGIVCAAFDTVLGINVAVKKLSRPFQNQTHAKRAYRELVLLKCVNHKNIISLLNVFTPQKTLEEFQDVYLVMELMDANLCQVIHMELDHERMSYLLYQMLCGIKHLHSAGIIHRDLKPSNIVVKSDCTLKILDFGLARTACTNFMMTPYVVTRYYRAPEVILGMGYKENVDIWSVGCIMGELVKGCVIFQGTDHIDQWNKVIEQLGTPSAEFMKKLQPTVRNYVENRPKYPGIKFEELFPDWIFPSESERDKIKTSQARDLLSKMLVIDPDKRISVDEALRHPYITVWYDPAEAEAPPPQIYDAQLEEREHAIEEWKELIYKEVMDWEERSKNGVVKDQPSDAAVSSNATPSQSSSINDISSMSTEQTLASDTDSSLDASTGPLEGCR
Experiment [14] has as its target Mitogen-activated protein kinase 8 (Homo sapiens) (UniProt P45983). Nature of the experiment: Activation of JNK1 in human HCT116 cells transfected with shRNA against p53 assessed as phosphorylation at 10 uM after 24 hrs by Western blotting analysis. Type of experiment: cell-based. The following applies: HCT-116.
For experiment [15], the target named is Mitogen-activated protein kinase 9 (Homo sapiens) (UniProt P45984). Nature of the experiment: Activation of JNK2 in human HCT116 cells transfected with shRNA against p53 assessed as phosphorylation at 10 uM after 24 hrs by Western blotting analysis. As to conditions: HCT-116. Type of experiment: cell-based.
Experiment [16] addresses Mitogen-activated protein kinase 8 (Homo sapiens) (UniProt P45983). Nature of the experiment: Activation of JNK1 in human HCT116 cells assessed as phosphorylation at 10 uM after 24 hrs by Western blotting analysis in presence of 30 uM PFT-alpha p53 antagonist. The class given is cell-based. As to conditions: HCT-116.
For experiment [17], the target named is Mitogen-activated protein kinase 9 (Homo sapiens) (UniProt P45984). Kind of experiment: Activation of JNK2 in human HCT116 cells assessed as phosphorylation at 10 uM after 24 hrs by Western blotting analysis in presence of 30 uM PFT-alpha p53 antagonist. The class given is cell-based. The following applies: HCT-116.
For experiment [18], the system named is HCT-116. Kind of experiment: Induction of autophagy in human HCT116 cells assessed as LC3-II accumulation at 10 uM upto 20 hrs by Western blotting analysis in presence of 20 uM SP600125 reversible JNK inhibitor. Type of experiment: functional, cell-based.
For experiment [19], the system named is HCT-116. Kind of experiment: Antiproliferative activity against human HCT116 cells at 10 uM upto 20 hrs by CCK8 assay relative to control in presence of 20 uM SP600125 reversible JNK inhibitor. The class given is functional, cell-based.
The test system of experiment [20] is HCT-116. Kind of experiment: Antiproliferative activity against human HCT116 cells assessed as cell viability after 24 hrs by WST8 assay. Type of experiment: functional, cell-based.
Experiment [21] has as its system HCT-116. Nature of the experiment: Antiproliferative activity against human HCT116 cells assessed as cell viability at 10 uM after 24 hrs by WST8 assay relative to vehicle treated control. The class given is functional. As to conditions: HCT-116, 24 h.
Experiment [22] relates to HCT-116. Kind of experiment: Induction of cell cycle arrest in human HCT116 cells assessed as cells accumulation at G0/G1 phase at 10 uM after 24 hrs by propidium iodide staining-based flow cytometry (reference value: 31.9 +/- 2.3%). The class given is functional.

Chain of Mitogen-activated protein kinase 8 (Homo sapiens) (P45983 whole entry): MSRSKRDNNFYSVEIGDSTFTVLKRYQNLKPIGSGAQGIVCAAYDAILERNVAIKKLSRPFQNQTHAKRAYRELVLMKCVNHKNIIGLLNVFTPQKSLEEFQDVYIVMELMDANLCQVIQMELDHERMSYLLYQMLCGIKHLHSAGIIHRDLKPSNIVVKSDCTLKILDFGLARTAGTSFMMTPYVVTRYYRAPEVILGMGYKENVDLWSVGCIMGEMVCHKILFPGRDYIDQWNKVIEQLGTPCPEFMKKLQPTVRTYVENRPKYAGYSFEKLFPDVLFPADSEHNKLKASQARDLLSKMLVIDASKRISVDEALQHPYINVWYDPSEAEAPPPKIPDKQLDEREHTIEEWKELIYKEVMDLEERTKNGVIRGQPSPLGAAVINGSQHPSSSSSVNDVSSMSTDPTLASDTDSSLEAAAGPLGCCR

`COc1cc(O)cc(O)c1C(=O)/C=C/c1ccccc1` [CARDAMOMIN]: the Activity in the experiment on HCT-116 [1] came to 46.6%; with HCT-116 [2] it was 25%; with HCT-116 [7], 3.4; in the experiment on HCT-116 [22], 28.4%. In addition, the outcome (with HCT-116 [3]; in the experiment on HCT-116 [5]; in the experiment on HCT-116 [6]; in [12]; in experiment [13]) was Active. In addition, the outcome (in the experiment with HCT-116 [4]; in the experiment with HCT-116 [8]; with HCT-116 [9]; in [14]; in [15]; in experiment [16]) was inactive. For the same compound, the outcome (in [17]; with HCT-116 [18]; in the experiment with HCT-116 [19]) was inactive. The inhibition entry in the experiment on HCT-116 [10] was “inactive”. For the same compound, the inhibition entry in the experiment with HCT-116 [11] is “Active”. Further, the inhibition entry in the experiment on HCT-116 [20] is “Dose-dependent effect”. Also, the inhibition at 10 µM with HCT-116 [21] was 37%.
